Results taken from patent publication US6613781B2, “Heterocyclylaklylindole or -azaindole compounds as 5-hydroxytryptamine-6 ligands” (Wyeth, priority 2000, dated 2003).
pKi: −log10 of the molar value. Counter-ions that a name gives are not always drawn. Like-named read-outs stand apart in the source and are kept apart here.

How the values were obtained:
[1] = target: T1, human cloned 5-HT6 receptors (Homo sapiens, UniProt P50406); test: Comparative evaluation of 5-HT6 binding affinity ([3H]-LSD displacement, Hela cell membranes)
T1 construct: expressed in transfected cells; host or cells: Hela cells
Description: The affinity of test compounds for the serotonin 5-HT6 receptor is evaluated in the following manner. Cultured Hela cells expressing human cloned 5-HT6 receptors are harvested and centrifuged at low speed (1,000×g) for 10.0 min to remove the culture media. The harvested cells are suspended in half volume of fresh physiological phosphate buffered saline solution and recentrifuged at the same speed. This operation is repeated. The collected cells are then homogenized in ten volumes of 50 mM Tris.HCl (pH 7.4) and 0.5 mM EDTA. The homogenate is centrifuged at 40,000×g for 30.0 min and the precipitate is collected. The obtained pellet is resuspended in 10 volumes of Tris.HCl buffer and recentrifuged at the same speed. The final pellet is suspended in a small volume of Tris.HCl buffer and the tissue protein content is determined in aliquots of 10-25 μl volumes. Bovine Serum Albumin is used as the standard in the protein determination according to the method described in Lowry et al., J. Biol. Chem., 193:265 (1951). The volume of the suspended cell membranes is adjusted to give a tissue protein concentration of 1.0 mg/ml of suspension. The prepared membrane suspension (10 times concentrated) is aliquoted in 1.0 ml volumes and stored at −70° C. until used in subsequent binding experiments.
Binding experiments are performed in a 96 well microtiter plate format, in a total volume of 200 μl. […] The test compounds are added in 20.0 μl volume.
The reaction is allowed to proceed in the dark for 120 min at room temperature, at which time, the bound ligand-receptor complex is filtered off on a 96 well unifilter with a Packard Filtermate® 196 Harvester. The bound complex caught on the filter disk is allowed to air dry and the radioactivity is measured in a Packard TopCount® equipped with six photomultiplier detectors, after the addition of 40.0 μl Microscint®-20 scintillant to each shallow well. The unifilter plate is heat-sealed and counted in a PackardTopCount® with a tritium efficiency of 31.0%.
Binding in the presence of varying concentrations of test compound is expressed as a percentage of specific binding in the absence of test compound. The results are plotted as log % bound versus log concentration of test compound. […] A linear regression line of data points is plotted, from which the IC50 value is determined and the Ki value is determined based upon the following equation: […]
where L is the concentration of the radioactive ligand used and KD is the dissociation constant of the ligand for the receptor, both expressed in nM.

[2] = [3H]-LSD 3.0 nM, membranes of Hela cells expressing human cloned 5-HT6 receptors, 120 min, room temperature, read-out: 5-HT6 Binding Ki

T1 sequence (P50406 whole entry): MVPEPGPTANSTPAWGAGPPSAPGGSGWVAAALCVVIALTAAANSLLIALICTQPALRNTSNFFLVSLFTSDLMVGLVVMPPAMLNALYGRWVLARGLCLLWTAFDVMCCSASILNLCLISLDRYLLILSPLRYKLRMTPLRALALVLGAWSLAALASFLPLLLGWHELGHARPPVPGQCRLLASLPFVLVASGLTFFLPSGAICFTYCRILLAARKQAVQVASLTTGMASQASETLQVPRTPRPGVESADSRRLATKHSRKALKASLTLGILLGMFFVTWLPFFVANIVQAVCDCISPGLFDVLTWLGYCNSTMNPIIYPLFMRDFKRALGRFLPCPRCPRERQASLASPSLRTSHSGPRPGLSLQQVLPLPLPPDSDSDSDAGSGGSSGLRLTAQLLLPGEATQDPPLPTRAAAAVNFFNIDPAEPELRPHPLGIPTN

Row | Compound | pKi [1, 2] | further results
1 | COc1ccc(S(=O)(=O)n2cc(CC3CCNCC3)c3cc(F)ccc32)cc1OC (as salt: hydrochloride) [Example 18, 1-[(3,4-dimethoxyphenyl)sulfonyl]-5-fluoro-3-(piperidin-4-ylmethyl)-1H-indole] | – | melting point: 246 °C
2 | N#Cc1ccc(S(=O)(=O)n2cc(CC3CCNCC3)c3cc(F)ccc32)cc1 (as salt: hydrochloride) [Example 19, 4-{[5-fluoro-3-(piperidin-4-ylmethyl)-1H-indol-1-yl]sulfonyl}benzonitrile] | – | melting point: 249 °C
3 | O=S(=O)(c1cccc2cccnc12)n1cc(CC2CCNCC2)c2cc(F)ccc21 (as salt: hydrochloride) [Example 20, 8-{[5-fluoro-3-(piperidin-4-ylmethyl)-1H-indol-1-yl]sulfonyl}quinoline] | – | melting point: 245 °C
4 | Nc1ccc(S(=O)(=O)n2cc(CC3CCNCC3)c3ccc(F)cc32)cc1 (as salt: hydrochloride) [Example 28] | – | melting point: 198 to 200 °C
5 | CC(C)C[C@H]1C(=O)N2CCC[C@H]2[C@]2(O)O[C@](NC(=O)[C@@H]3C=C4c5cccc6[nH]c(Br)c(c56)C[C@H]4N(C)C3)(C(C)C)C(=O)N12 [Bromocriptine, reference compound] | – | pKi [1]: 7.64
6 | O=S(=O)(c1ccccc1)n1cc(CC2CCNCC2)c2cc(F)ccc21 [Example 6, 5-Fluoro-1-phenylsulfonyl)-3-(4-piperidinylmethyl)-1H-indole hydrochloride] | 7.92 | –
7 | Nc1ccc(S(=O)(=O)n2cc(CC3CCNCC3)c3cc(F)ccc32)cc1 [Example 7, 4-{[5-Fluoro-3-(4-piperidinylmethyl)-1H-indole-1-yl]sulfonyl}aniline] | 9.00 | –
8 | O=S(=O)(c1ccccc1)n1cc(CC2CCNCC2)c2ccc(F)cc21 [Example 21, 6-flouro-1-(phenylsulfonyl)-3-(4-piperidinylmethyl)-1H-indole] | 7.89 | –
9 | O=S(=O)(c1cccc2ccccc12)n1cc(CC2CCNCC2)c2ccc(F)cc21 [Example 22, 6-flouro-1-(1-naphthylsulfonyl)-3-(4-piperidinylmethyl)-1H-indole] | 7.62 | –
10 | COc1ccc(S(=O)(=O)n2cc(CC3CCNCC3)c3ccc(F)cc32)cc1OC [Example 23, 6-flouro-1-(3,4-dimethoxyphenylsulfonyl)-3-(4-piperidinylmethyl)-1H-indole] | 7.72 | –
11 | O=S(=O)(c1ccccc1Cl)n1cc(CC2CCNCC2)c2ccc(F)cc21 [Example 24, 6-flouro-1-(2-chlorophenylsulfonyl)-3-(4-piperidinylmethyl)-1H-indole] | 7.89 | –
12 | O=S(=O)(c1ccc(Cl)s1)n1cc(CC2CCNCC2)c2ccc(F)cc21 [Example 25, 6-flouro-1-(5-chlorothien-2-ylsulfonyl)-3-(4-piperidinylmethyl)-1H-indole] | 7.74 | –
13 | O=S(=O)(c1ccccc1F)n1cc(CC2CCNCC2)c2ccc(F)cc21 [Example 26, 6-flouro-1-(2-fluorophenylsulfonyl)-3-(4-piperidinylmethyl)-1H-indole] | 7.77 | –
14 | O=S(=O)(c1cccc(F)c1)n1cc(CC2CCNCC2)c2ccc(F)cc21 [Example 27, 6-flouro-1-(3-fluorophenylsulfonyl)-3-(4-piperidinylmethyl)-1H-indole] | 7.54 | –

The next lines start with results.

Row | pKi [1, 2] | Compound | further results
15 | 7.89 | O=S(=O)(c1cccc2ccccc12)n1cc(CC2CCNCC2)c2cc(F)ccc21 [Example 10, 5-Fluoro-1-(1-naphthylsulfonyl)-3-(4-piperidinylmethyl)-1H-indole hydrochloride] | –
16 | 8.10 | COc1ccc(S(=O)(=O)n2cc(CC3CCNCC3)c3cc(F)ccc32)cc1OC [Example 18, 1-[(3,4-dimethoxyphenyl)sulfonyl]-5-fluoro-3-(piperidin-4-ylmethyl)-1H-indole] | –
17 | 6.79 | N#Cc1ccc(S(=O)(=O)n2cc(CC3CCNCC3)c3cc(F)ccc32)cc1 [Example 19, 4-{[5-fluoro-3-(piperidin-4-ylmethyl)-1H-indol-1-yl]sulfonyl}benzonitrile] | –
18 | 8.70 | O=S(=O)(c1cccc2cccnc12)n1cc(CC2CCNCC2)c2cc(F)ccc21 [Example 20, 8-{[5-fluoro-3-(piperidin-4-ylmethyl)-1H-indol-1-yl]sulfonyl}quinoline] | –
19 | 8.52 | Nc1ccc(S(=O)(=O)n2cc(CC3CCNCC3)c3ccc(F)cc32)cc1 [Example 28] | –
20 | 7.38 | CN1CCN(C2=Nc3ccccc3Oc3ccc(Cl)cc32)CC1 [Loxapine, reference compound] | –
